From patent US20210038668A1, “TRADITIONAL CHINESE MEDICINE COMPOSITION FOR PREVENTING AND/OR TREATING ISCHEMIC REPERFUSION INJURY” (TASLY PHARMACEUTICAL GROUP CO., LTD., priority 2018, published 2021)

Test system: MDA
Experiment: ELISA of MDA in brain tissue
Assay type: in vivo, C57BL/6 mice
Settings: brain tissue 24 hours after administration; tPA 10 mg/kg alone or + T541 20 mg/kg or ingredients at Table 7 doses
Source text: To compare the therapeutical effect on reperfusion injury caused by tPA thrombolysis between the traditional Chinese medicinal composition of the present invention and each ingredient (total saponins of Astragalus, the experiment was divided into the following group (tPA is combined with T541, individual ingredient thereof and compatibility of any two ingredients) specifically as follows: tPA+total saponins of Astragalus (tPA+HQ), tPA+ salvianolic acids (tPA+DS), tPA+Panax notoginseng saponins (tPA+SQ), tPA+ total saponins of Astragalus+salvianolic acids (tPA+HQ+DS), tPA+ total saponins of Astragalus+Panax notoginseng saponins (tPA+HQ+SQ), tPA+ salvianolic acids+Panax notoginseng saponins (tPA+DS+SQ) and tPA+T541. Normal saline served as an isovolumetric control. The usage number in each group is 6.
ELISA adsorption kit was used to measure the change on the content of MDA, 8-hydroxyl-2′-deoxyguanosine (8-OHdG), adenosine triphosphate (ATP), adenosine diphosphate (ADP) and adenosine monophosphate (AMP) in the penumbra field of brain tissue cortex of the mode, and the change on the activity of mitochondrial complexes I, II, IV and V. 6 samples were used to repeat the independent experiment for at least three times for each group of data.

tPA: tissue-type plasminogen activator (tPA) for thrombolysis
MDA: 30.08 ± 2.90
